Consider four compounds from PubChem BioAssay AID1259407 (Chemical Carcinogenesis Research Information System (CCRIS), 2018).

Calls of active or inactive are those of the source. No rule for the calls is given here.

For this data set, the system named is CCRIS mutagenicity, Ames/micronucleus/aberration tests. Nature of the data set: CCRIS mutagenicity studies. From the text: The CCRIS database contains chemical records with carcinogenicity, mutagenicity, tumor promotion, and tumor inhibition test results. It was developed by the National Cancer Institute (NCI). Data are derived from studies cited in primary journals, current awareness tools, NCI reports, and other sources. Test results have been reviewed by experts in carcinogenesis and mutagenesis.
CCRIS provides historical information from the years 1985 - 2011. It is no longer updated.
This is an archive assay for CCRIS mutagenicity studies.

Where [1] appears, read: Test System: AMES SALMONELLA TYPHIMURIUM, Strain/Indicator: TA98, Metabolic Activation: NONE, Method: PREINCUBATION
Setting [2] is: Test System: AMES SALMONELLA TYPHIMURIUM, Strain/Indicator: TA100, Metabolic Activation: NONE, Method: PREINCUBATION
[3] abbreviates: Test System: AMES SALMONELLA TYPHIMURIUM, Strain/Indicator: TA1535, Metabolic Activation: NONE, Method: PREINCUBATION
The mark [4] stands for this setting: Test System: AMES SALMONELLA TYPHIMURIUM, Strain/Indicator: TA1537, Metabolic Activation: NONE, Method: PREINCUBATION

Turning to `Nc1ccc(-c2ccc(N)c(Cl)c2)cc1Cl`, the mutagenic call was “active; positive” (Test System: AMES SALMONELLA TYPHIMURIUM, Strain/Indicator: TA98(1,8-DNP6), Metabolic Activation: NONE, Method: STANDARD PLATE); “active; positive” (Test System: AMES SALMONELLA TYPHIMURIUM, Strain/Indicator: TA98(1,8-DNP6), Metabolic Activation: S-9, Method: STANDARD PLATE); “active; positive” (Test System: AMES SALMONELLA TYPHIMURIUM, Strain/Indicator: TA98/1,8-DNP6, Metabolic Activation: HAMSTER, LIVER, S-9, Method: PREINCUBATION); “active; positive” (Test System: AMES SALMONELLA TYPHIMURIUM, Strain/Indicator: TA98/1,8-DNP6, Metabolic Activation: NONE, Method: PREINCUBATION); “active; positive” (Test System: AMES SALMONELLA TYPHIMURIUM, Strain/Indicator: TA98, Metabolic Activation: HAMSTER, LIVER, S-9, AROCLOR 1254, Method: PREINCUBATION); “active; positive” (Test System: AMES SALMONELLA TYPHIMURIUM, Strain/Indicator: TA98, Metabolic Activation: HAMSTER, LIVER, S-9, Method: PREINCUBATION). Further, the mutagenic call by setting is: (Test System: AMES SALMONELLA TYPHIMURIUM, Strain/Indicator: TA98, Metabolic Activation: MOUSE, LIVER, S-9, Method: STANDARD PLATE) “active; positive”; under setting [1], “active; positive”; (Test System: AMES SALMONELLA TYPHIMURIUM, Strain/Indicator: TA98, Metabolic Activation: NONE, Method: STANDARD PLATE) “active; positive”; (Test System: AMES SALMONELLA TYPHIMURIUM, Strain/Indicator: TA98, Metabolic Activation: RAT LIVER S-9, AROCLOR 1254, Method: PREINCUBATION) “active; positive”; (Test System: AMES SALMONELLA TYPHIMURIUM, Strain/Indicator: TA98, Metabolic Activation: RAT, LIVER, S-9, AROCLOR 1254, Method: PREINCUBATION) “active; positive”; (Test System: AMES SALMONELLA TYPHIMURIUM, Strain/Indicator: TA98, Metabolic Activation: RAT, LIVER, S-9, AROCLOR 1254, Method: STANDARD PLATE) “active; positive”. For the same compound, the mutagenic call runs as follows: (Test System: AMES SALMONELLA TYPHIMURIUM, Strain/Indicator: TA98, Metabolic Activation: S-9, Method: STANDARD PLATE) “active; positive”; (Test System: AMES SALMONELLA TYPHIMURIUM, Strain/Indicator: TA100, Metabolic Activation: HAMSTER, LIVER, S-9, AROCLOR 1254, Method: PREINCUBATION) “active; positive”; under setting [2], “inactive; negative”; (Test System: AMES SALMONELLA TYPHIMURIUM, Strain/Indicator: TA100, Metabolic Activation: NONE, Method: STANDARD PLATE) “inactive; negative”; (Test System: AMES SALMONELLA TYPHIMURIUM, Strain/Indicator: TA100, Metabolic Activation: RAT LIVER S-9, AROCLOR 1254, Method: PREINCUBATION) “active; positive”; (Test System: AMES SALMONELLA TYPHIMURIUM, Strain/Indicator: TA100, Metabolic Activation: RAT, LIVER, S-9, AROCLOR 1254, Method: PREINCUBATION) “active; positive”. The mutagenic call is, setting by setting: (Test System: AMES SALMONELLA TYPHIMURIUM, Strain/Indicator: TA100, Metabolic Activation: RAT, LIVER, S-9, AROCLOR 1254, Method: STANDARD PLATE) “active; positive”; (Test System: AMES SALMONELLA TYPHIMURIUM, Strain/Indicator: TA100, Metabolic Activation: S-9, Method: STANDARD PLATE) “active; positive”; (Test System: AMES SALMONELLA TYPHIMURIUM, Strain/Indicator: TA1535, Metabolic Activation: HAMSTER, LIVER, S-9, AROCLOR 1254, Method: PREINCUBATION) “inactive; negative”; under setting [3], “inactive; negative”; (Test System: AMES SALMONELLA TYPHIMURIUM, Strain/Indicator: TA1535, Metabolic Activation: RAT, LIVER, S-9, AROCLOR 1254, Method: PREINCUBATION) “inactive; negative”; (Test System: AMES SALMONELLA TYPHIMURIUM, Strain/Indicator: TA1535, Metabolic Activation: RAT, LIVER, S-9, AROCLOR 1254, Method: STANDARD PLATE) “active; positive”. The mutagenic call was “active; positive” (Test System: AMES SALMONELLA TYPHIMURIUM, Strain/Indicator: TA1537, Metabolic Activation: HAMSTER, LIVER, S-9, AROCLOR 1254, Method: PREINCUBATION); “inactive; negative” under setting [4]; “active; positive” (Test System: AMES SALMONELLA TYPHIMURIUM, Strain/Indicator: TA1537, Metabolic Activation: RAT, LIVER, S-9, AROCLOR 1254, Method: PREINCUBATION); “active; positive” (Test System: AMES SALMONELLA TYPHIMURIUM, Strain/Indicator: TA1537, Metabolic Activation: RAT, LIVER, S-9, PHENOBARBITAL, Method: STANDARD PLATE); “active; positive” (Test System: AMES SALMONELLA TYPHIMURIUM, Strain/Indicator: TA1538, Metabolic Activation: HAMSTER, LIVER, S-9, Method: STANDARD PLATE); “active; positive” (Test System: AMES SALMONELLA TYPHIMURIUM, Strain/Indicator: TA1538, Metabolic Activation: NONE, Method: STANDARD PLATE). In addition, the mutagenic call runs as follows: (Test System: AMES SALMONELLA TYPHIMURIUM, Strain/Indicator: TA1538, Metabolic Activation: RAT, LIVER, S-9, AROCLOR 1254, Method: STANDARD PLATE) “active; positive”; (Test System: AMES SALMONELLA TYPHIMURIUM, Strain/Indicator: TA1538, Metabolic Activation: RAT, LIVER, S-9, PHENOBARBITAL, Method: STANDARD PLATE) “active; positive”; (Test System: Ames Salmonella typhimurium, Strain/Indicator: TA102, Metabolic Activation: None, Method: Preincubation) “active; positive”; (Test System: Ames Salmonella typhimurium, Strain/Indicator: TA102, Metabolic Activation: Rat, liver, S-9, Aroclor 1254, 4%, Method: Preincubation) “active; positive”; (Test System: UDS HUMAN FIBROBLASTS, Strain/Indicator: THY INCORP (NON-S-PHASE), Metabolic Activation: NONE, Method: LIQUID SCINTILLATION COUNTING) “active; positive”.

As to `CC(=O)[O-].CC(=O)[O-].[Cd+2]`, the mutagenic call by setting is: (End Point: IN VITRO MICRONUCLEUS, Test System: CHL/IU CELLS, Metabolic Activation: NONE) “active; positive”; (Test System: CHINESE HAMSTER OVARY, Strain/Indicator: CHO-K1 (HPRT)/6-THIOGUANINE, Metabolic Activation: NONE) “active; positive”.

In the case of `O=C1OCCO1`, the mutagenic call reads like this: under setting [1], “inactive; negative”; (Test System: AMES SALMONELLA TYPHIMURIUM, Strain/Indicator: TA98, Metabolic Activation: RAT LIVER S-9, PHENOBARBITAL AND BETA-NAPHTHOFLAVONE, Method: PREINCUBATION) “inactive; negative”; under setting [2], “inactive; negative”; (Test System: AMES SALMONELLA TYPHIMURIUM, Strain/Indicator: TA100, Metabolic Activation: RAT LIVER S-9, PHENOBARBITAL AND BETA-NAPHTHOFLAVONE, Method: PREINCUBATION) “inactive; negative”; under setting [3], “inactive; negative”; (Test System: AMES SALMONELLA TYPHIMURIUM, Strain/Indicator: TA1535, Metabolic Activation: RAT LIVER S-9, PHENOBARBITAL AND BETA-NAPHTHOFLAVONE, Method: PREINCUBATION) “inactive; negative”. For the same compound, the mutagenic call under setting [4] was “inactive; negative”; the mutagenic call (Test System: AMES SALMONELLA TYPHIMURIUM, Strain/Indicator: TA1537, Metabolic Activation: RAT LIVER S-9, PHENOBARBITAL AND BETA-NAPHTHOFLAVONE, Method: PREINCUBATION) was “inactive; negative”; the mutagenic call (Test System: E.COLI, Strain/Indicator: WP2UVRA/PKM101, Metabolic Activation: NONE, Method: PREINCUBATION) is “inactive; negative”; the mutagenic call (Test System: E.COLI, Strain/Indicator: WP2UVRA/PKM101, Metabolic Activation: RAT LIVER S-9, PHENOBARBITAL AND BETA-NAPHTHOFLAVONE, Method: PREINCUBATION) is “inactive; negative”.

`ClCC(Br)CCl`: the mutagenic call is “active; positive” (Test System: AMES SALMONELLA TYPHIMURIUM, Strain/Indicator: TA100, Metabolic Activation: RAT, LIVER, MICROSOMES, PHENOBARBITAL, NADPH COFACTORS, Method: STANDARD PLATE) and “inactive; negative” (Test System: AMES SALMONELLA TYPHIMURIUM, Strain/Indicator: TA100, Metabolic Activation: RAT, LIVER, MICROSOMES, PHENOBARBITAL, Method: STANDARD PLATE).
